This is an account of results in PubChem BioAssay AID179 (DTP/NCI, 2004).

Active and inactive are the calls of the source.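 How the source made its calls: active means compounds giving half or more protection of infected cells from virus-caused growth loss, again on retest; inactive means the rest.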 Where a SMILES comes first, the peptide text is derived from it. The star is where a group is joined. Fmoc = O=C(OCC1c2ccccc2-c2ccccc21)*; OBn = c1ccc(CO*)cc1; tBu = CC(C)(C)*

In this assay the test system is CEM cells HIV-1 protection, formazan growth assay. Nature of the assay: NCI AIDS Antiviral Assay. The following applies: for IC50: measured here: growth of uninfected CEM cells. In outline: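 Steps: treat uninfected and HIV-1-infected human CEM cells at five drug levels; quantify growth by soluble formazan; retest any compound reaching 50% protection; classify actives from the retest.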

For `C=C1[C@@H]2O[C@@H]3CC(=O)[C@@H](O)[C@]2(C(=O)N1OC)[C@H]3/C=C/C`, the EC50 – broadly, the midpoint of the concentration-response curve – is above 115 µM and the IC50 (usually the concentration that inhibits the measured activity by half) is above 115 µM.

`CCOc1ccc(C2=C(Cl)c3cc(OC)c(OC)cc3C2Cl)cc1` (stereo not given): the outcome was inactive.

In the case of `NC1=NNC(=O)C1N=Nc1ccc(S(=O)(=O)Nc2nccs2)cc1` (stereo not given), the EC50 is above 200 µM and the IC50 was above 200 µM.

Turning to `N#Cc1c(N=Cc2ccccc2)c(C(=O)Nc2ccccc2)n2c1CCC2`, the EC50 is above 50.1 µM and the 50% inhibitory concentration (IC50) is above 50.1 µM.

With `Cc1oc2nc(N(C)C)nc(Cl)c2c1C`, the outcome was inactive.

Molecule `NC(=O)CNC(=O)c1ccccc1SC(=O)OCCBr` came in with an EC50 of 7.08 µM and an IC50 above 200 µM.

Regarding `CCOC(=N)CC(=O)Nc1ccccc1`, the EC50 was above 40.7 µM and the IC50 was above 40.7 µM.

With `NC1=NC(=O)CS1`, the EC50 is above 2140 µM and the IC50 is above 2140 µM.

Turning to `CC(C)COC(=O)Sc1ccccc1C(=O)NC(C)C(N)=O` (stereo not given), the EC50 was 1.1 µM and the IC50 worked out at 115 µM.

For `O=S(=O)(F)c1ccc(C[P+](c2ccccc2)(c2ccccc2)c2ccccc2)cc1`, the EC50 was above 200 µM and the concentration for half-maximal inhibition (IC50) is above 100 µM.

On to `O=[N+]([O-])c1ccc(C2=NOC(c3ccc(Cl)cc3)N2C23CC4CC(CC(C4)C2)C3)cc1` (stereo not given), for which the EC50 is above 200 µM and the IC50 stood at 182 µM.

With `CCOC(=O)C(=O)/C=C(\C)Nc1c(NC2OCC(OC(C)=O)C(OC(C)=O)C2OC(C)=O)nc(SC)[nH]c1=O` (stereo not given), the EC50 was above 87.1 µM and the IC50 was above 87.1 µM.

Take `NC(=O)C(=CN1CC(=O)NC1=S)C(N)=O`: the EC50 is above 200 µM and the IC50 was above 200 µM.

For `CC(OC(C)(C)C)C(NC(=O)OCC1c2ccccc2-c2ccccc21)C(=O)NC(Cc1ccccc1)C(=O)OCc1ccccc1` (stereo not given) (Fmoc-Thr(tBu)-Phe-OBn; configuration not given here), the EC50 is above 200 µM and the IC50 was above 200 µM.

Turning to `N#CC(NNC(=O)Cc1ccccc1)c1ccc([N+](=O)[O-])cc1` (stereo not given), the EC50 is above 115 µM and the IC50 was above 115 µM.

For the molecule `CCCCCOCCCCCCCC(=O)O`, the EC50 was above 200 µM and the IC50 came out at 89.1 µM.

Take `CCC(C)C(NC(=O)C(CCC(N)=O)NC(=O)C(CCC(N)=O)NC(=O)C(CO)NC(=O)C(CC(C)C)NC(=O)C(CC(N)=O)NC(=O)C(N)C(C)O)C(=O)NC(CO)C(=O)NC(CO)C(=O)NC(CC(N)=O)C(=O)O` (stereo not given) (H-TNLSQQISSN-OH; configuration not given here): the EC50 was above 28.8 µM and the half-maximal inhibitory concentration (IC50) was above 28.8 µM.

On to `CC(=O)CC(=O)Nc1ccccc1C(F)(F)F`, for which the EC50 is above 204 µM and the IC50 is above 204 µM.

In the case of `CC(=O)NNc1nc(C)c(C(=O)/C=C/c2ccc(Cl)cc2)s1`, the EC50 is above 56.2 µM and the IC50 is above 56.2 µM.

Take `O=C1CC2(CCC(O)(c3ccccc3)C(C(=O)c3ccccc3)C2)C(=O)c2ccccc2N1` (stereo not given): the EC50 is above 200 µM and the IC50 is above 200 µM.

With `CNc1ncnc2c1ncn2C1C=CC(COS(N)(=O)=O)C1` (stereo not given), the EC50 was above 200 µM and the IC50 is above 200 µM.

Turning to `CN(C)c1cc(CNCCc2cnc[nH]2)nc(CNCCc2cnc[nH]2)c1`, the EC50 is above 200 µM and the IC50 turned out to be 12.3 µM.

Regarding `CC(=O)c1sc2n(C)c(=O)c3ccccc3[n+]2c1C`, the EC50 is above 200 µM and the IC50 was above 200 µM.

For the molecule `COc1cccc(N(CN2C(=O)CCC2C(=O)O)C(C)=O)c1` (stereo not given), the outcome was inactive.

As for `O=c1ccn(C2OC(COC3CCCCO3)C(OC3CCCCO3)C2OC2CCCCO2)c(=O)n1-c1ccccc1` (stereo not given), the EC50 is above 200 µM and the IC50 was above 200 µM.

In the case of `Cn1c(=O)c(-c2ccccc2)c(N=[N+]=[N-])c2ccccc21`, the EC50 was above 200 µM and the IC50 amounted to 135 µM.

Regarding `O=C1NC(N2CCOCC2)=N/C1=C\c1ccccc1`, the EC50 was above 200 µM and the IC50 is above 200 µM.

For the molecule `CC(C)(C)OC(=O)N1CCC2(CC1)C(=O)NCN2c1ccccc1`, the EC50 was above 200 µM and the IC50 was above 200 µM.

As for `NC(=O)C1CCCN1C(=O)N(CCCl)N=O` (stereo not given), the EC50 is above 200 µM and the IC50 is above 200 µM.

Regarding `Cc1cc(NS(=O)(=O)c2ccc(NC(=O)c3ccc(Cl)c4c(Nc5ccc(S(=O)(=O)N=C(N)N)cc5)c5ccccc5nc34)cc2)no1`, the EC50 was above 51.3 µM and the 50% inhibitory concentration (IC50) is above 51.3 µM.

For the molecule `Clc1ccc(C2=CCN3CC=C(c4ccc(Cl)cc4)C23)cc1`, the EC50 was above 200 µM and the IC50 worked out at 10.7 µM.

In the case of `COC(=O)C1CC(C=[N+](C)C)=C(SC)N1C(=O)OCc1ccccc1` (stereo not given), the EC50 is above 200 µM and the IC50 was 191 µM.

On to `Cc1nn(-c2ccc([N+](=O)[O-])cc2)c2c1C(C)(C)C(C#N)=C(N)O2`, for which the EC50 was above 200 µM and the IC50 was above 200 µM.

Regarding `O=[N+]([O-])C=C1c2ccccc2-c2ccccc21`, the outcome was inactive.

On to `CCOC(=O)Cc1nc2cc(F)c(F)cc2[nH]c1=O`, for which the EC50 is above 200 µM and the half-inhibitory concentration (IC50) was above 200 µM.

`O=C(O)CN(CCN(CC(=O)O)CC(=O)O)CC(=O)O.[Cu+2].[Na+]`: the EC50 was above 200 µM and the IC50 was 8.91 µM.

Take `Cc1ccc(CC(Cc2ccccc2C)C(=O)O)c(C(=O)O)c1` (stereo not given): the EC50 is above 200 µM and the IC50 was above 200 µM.

For `c1ccc([P+](CC2CCCO2)(c2ccccc2)c2ccccc2)cc1` (stereo not given), the EC50 was above 200 µM and the IC50 amounted to 2.82 µM.

For `CC(=O)c1cccc(NC(=O)/C(=N\NC(C)(C)C)c2c(O)c3ccccc3oc2=O)c1`, the EC50 was above 589 µM and the IC50 was determined as 257 µM.

In the case of `CN(C)CCCOC(=O)C(c1ccccc1)C1(O)CCSCC1` (stereo not given), the EC50 is above 200 µM and the IC50 is above 200 µM.

For the molecule `COc1cc(C[N+]23CC[N+](Cc4cc(OC)cc(OC)c4)(CC2)C3)cc(OC)c1`, the EC50 is above 525 µM and the half-maximal inhibitory concentration (IC50) is 214 µM.

As for `CC1=CC(C)(C)SC(SSSC2=NC(C)=CC(C)(C)S2)=N1`, the EC50 is above 200 µM and the IC50 stood at 38.9 µM.

As for `O=c1c2cc(Br)cc(Br)c2[nH]c(=S)n1-c1ccccc1`, the EC50 was above 316 µM and the IC50 worked out at 126 µM.

With `COc1cc(C(=O)n2c3ccc(Br)cc3c3nc4ccccc4nc32)cc(OC)c1OC`, the EC50 is above 50.1 µM and the concentration for half-maximal inhibition (IC50) is above 50.1 µM.

On to `O=C(c1ccc(Cl)cc1Cl)N(/N=C/C=C/c1ccccc1)c1nnc(-c2ccccc2)c(-c2ccccc2)n1`, for which the EC50 was above 13.2 µM and the 50% inhibitory concentration (IC50) is above 13.2 µM.

With `Cn1c2ccccc2c2nc3ccccc3nc21`, the EC50 was above 22.4 µM and the half-inhibitory concentration (IC50) is above 22.4 µM.

`COc1cc(N=Nc2ccc(N=Nc3cc(NC(C)=O)c(N=Nc4ccc(S(=O)(=O)O)cc4)cc3S(=O)(=O)O)c(C)c2)c(C)cc1NC(=O)c1ccc(N)cc1`: the concentration for a half-maximal effect (EC50) is 3.55 µM and the IC50 was 102 µM.

For the molecule `COc1ccc2nc3cc([N+](=O)[O-])ccc3c(NNc3ccc([N+](=O)[O-])cc3)c2c1`, the EC50 is above 200 µM and the IC50 amounted to 50.1 µM.

Take `CC(C)c1cc(C(C)C)c(S(=O)(=O)N/N=C2\CC3CCC2(C)C3(C)C)c(C(C)C)c1` (stereo not given): the EC50 is above 200 µM and the half-inhibitory concentration (IC50) came out at 18.6 µM.

Turning to `Cc1ccc(S(=O)(=O)C2c3nc4ccccc4cc3-c3nc4ccccc4nc32)cc1` (stereo not given), the EC50 was above 32.4 µM and the IC50 is above 32.4 µM.

For `Cc1ccc2nnc(NS(=O)(=O)c3cc(C)c(Cl)cc3S)n2n1`, the EC50 was above 200 µM and the IC50 is above 200 µM.

For `CC(C)N1CNC(=O)C12CCN(CC1COc3ccccc3O1)CC2` (stereo not given), the EC50 is above 200 µM and the IC50 was above 200 µM.

For the molecule `COC(=O)C(=O)C(C(=O)C(=O)Nc1ccccc1OC)c1nc2ccc([N+](=O)[O-])cc2[nH]c1=O` (stereo not given), the EC50 was above 537 µM and the IC50 was 95.5 µM.

In the case of `CC(=O)OC1=c2ccccc2=C(O)C2C1C=NN2C(C)=O` (stereo not given), the EC50 is above 200 µM and the IC50 was 87.1 µM.

In the case of `Cc1ncc([N+](=O)[O-])n1CCNC(=O)CCC(=O)NCCCn1ccnc1[N+](=O)[O-]`, the EC50 was above 200 µM and the IC50 was above 200 µM.

Regarding `O=C(CC/C(C/C(=N/O)c1ccc(F)cc1)=N/O)N(Cc1ccccc1)Cc1ccccc1`, the EC50 was above 112 µM and the IC50 was above 112 µM.

On to `CCN(CC)CCC(=O)c1ccc(Cl)cc1`, for which the EC50 is above 912 µM and the IC50 turned out to be 12.3 µM.

As to `Nc1ccn(C2OC(COC(=O)c3ccccc3)C(OC(=O)c3ccccc3)C2I)c(=O)n1` (stereo not given), the EC50 was above 200 µM and the concentration for half-maximal inhibition (IC50) came out at 35.5 µM.

For `O=C(CC(O)(C(F)(F)F)C(F)(F)Cl)CC(O)(C(F)(F)F)C(F)(F)Cl` (stereo not given), the outcome was inactive.

As for `N#C/C(=C\c1cc(O)c(O)c(O)c1)C(=O)NCCCCCNC(=O)/C(C#N)=C/c1cc(O)c(O)c(O)c1`, the EC50 was above 200 µM and the IC50 was 38 µM.

With `COc1cc2c(c(OC)c1OC)-c1ccc(SC)c(=O)cc1C(NC(=O)c1ccccc1)CC2` (stereo not given), the EC50 is above 2 µM and the IC50 was determined as 0.000708 µM.

With `CC(=O)Nc1ccc(/C=C/C(=O)c2sc(-c3cccnc3)nc2C)cc1`, the EC50 was above 51.3 µM and the half-maximal inhibitory concentration (IC50) was above 51.3 µM.

Take `COc1ccc([C@@]23Oc4cc(OC)cc(OC)c4[C@]2(O)[C@H](O)[C@H](C(=O)N(C)C)[C@H]3c2ccccc2)cc1`: the EC50 is above 200 µM and the concentration for half-maximal inhibition (IC50) turned out to be 0.0631 µM.

For the molecule `O=C1C(c2ccc3ccccc3n2)=C(O)c2ccccc21`, the outcome was inactive.

As for `OC1(c2cccc(Cl)c2)C2=NCCCN2c2ccccc21` (stereo not given), the result was inactive.

As to `CC(=O)[O-].[Ni].c1ccc(/C(=N\Nc2ccccn2)c2ccccn2)cc1`, the outcome was inactive.

For the molecule `CCOP(=O)(CCn1cnc2c(N)ncnc21)OCC`, the EC50 was 178 µM and the IC50 stood at 437 µM.

In the case of `c1ccc(C2=C(c3ccccc3)C23SCCS3)cc1`, the EC50 was above 200 µM and the concentration for half-maximal inhibition (IC50) is 33.9 µM.

With `COc1ccc2c(c1OC)C[N+]1(C)CCc3cc4c(cc3C1C2)OCO4` (stereo not given), the EC50 is above 158 µM and the IC50 was above 158 µM.
